Reference: patent US20190240282A1, “Nanocage” (IMPERIAL INNOVATIONS LIMITED, priority 2016, published 2019)

How the values were obtained:
HT29 cells = assay: Flow cytometry, antibody directed cell binding of GFP nanocage; assay type: cell-based
Protocol: (§1) Purified wt ZZ-GFP-hFTN (20 μg) was mixed with either anti-NK1.1 antibody (1 μg) or anti-EGFR antibody (1 μg) in 210 μl of PBS. For each assay, 50 μl of the nanocage-antibody was mixed with 1×10^6 cells of either HT29 or MNK1.1 in 100 μl. Cells were analysed an a BD Fortessa using the FITC channel (ex 488 nm; emm 530-30 nm) to observe GFP fluorescence. […] Nanocage antibody are shown with MNK1.1 cells (B) and HT29 cells (D);
(§2) Flow cytometry was performed on a BD Fortessa using the FITC channel to observe GFP (ex 488 nm; emm 530-30 nm; ToPro-3 was imaged in red channel (640 nm ex; 670/14 emission). Data was analysed using Flow-Jo software.
(§3) Ferritin fusions containing an N-terminal ZZ domain, in principle, should be able to bind to IgG isotype antibodies since the Z-domain is a synthetic derivative of an IgG binding domain from Staphylococcus aureus protein A. The inventors evaluated the specificity with which they can direct the targeting of the ferritin nanocage to specific cell types by direct antibody interactions. To establish a fluorescent basis for determining cell binding they used the GFP labelled wt ZZ-GFP-hFTN.

MNK1.1 cells = assay: as above; assay type: cell-based, mouse
Protocol: as §1, §2, §3

HT-29 cells [1] = assay: LC-MS of lysed cells after dosing with the nanocage-antibody complex; assay type: cell-based; settings: delivered by the nanocage with anti-EGFR; cells washed prior to lysis
Protocol: HT-29 cells were grown in DMEM medium with 10% FBS overnight. Cells were then treated with the nanocage-antibody complex (100 μl) at 37° C. for different 48 h and 72 h. After incubation, the cells were washed 3× with cold PBS. Re-suspended cells were analysed by LC-MS (Agilent 6550), data were quantified using a 20 ppm window for Dox and PI based on a calibrated standard;
Purified protein and cell extract samples were analysed by LCMS on an Agilent 6550. LC separation was achieved using a 1290 Infinity system (Agilent, Santa Clara, Calif.) and a Vydac 214MS C4 column, 2.1×150 mm and […], (Grace, Columbia, Md.) at a temperature of 35° C. with a buffer flow rate of 0.2 ml/min. with a denaturing mobile phase: buffer A was 0.1% formic acid in water and buffer B was 0.1% formic acid in acetonitrile. Elution of components was achieved using a linear gradient from 3% to 40% buffer B over 18.5 min. On-line mass spectra were accumulated on a 6550 quadrupole time-of-flight instrument with a dual electrospray Jet Stream source (Agilent). Mass spectra were acquired of the m/z range of 100-1700 at a rate of 0.6 spectra per second. […]
Further evaluation of drug delivery was performed by mass spectrometry. Following the dosing procedure used above, cells were washed prior to lysis and drug presence measured by LC-MS (Agilent 6550). […]

HT-29 cells [2] = assay: Phenotypic cell death assay using Vybrant cell staining and flow cytometry; assay type: cell-based; settings: after 48 h, free drug alone, 5 μM
Protocol: HT-29 cells were trypsinised and cell viability was assessed using the Trypan blue exclusion assay—count cells treated with Trypan blue dye using a haemocytometer, and determine the volume of cell suspension that contains 5×10^5 live cells. Live cells (5×10^5) seeded into a 12-well plate with a final volume of 500 μL. This final 500 μL volume will consist of 5×10^5 cells+medium+drug-Au-ZZ-hFTN+anti-EGFR antibody (0.5-1 μg). The plate was incubated in a tissue culture incubator set at 37° C., 5% CO2, 95% humidity for 24 h or 48 h before the experiment was stopped. Uptake of drug-Au-ZZ-hFTN by cells was stopped by removing the 500 μL solution containing test or control compounds, trypsinising cells and pelleting cells in preparation for cytotoxicity assays, e.g. Vybrant cell apoptosis assay. […] Within 30 min after the incubation period, the stained cells were analysed by flow cytometry, using 488 nm excitation with green fluorescence emission for YOPRO R-1 (i.e., 530/30 bandpass) and red fluorescence emission for propidium iodide (i.e., 610/20 bandpass), gating on cells to exclude debris. […] The stained cell population will separate into three groups: live cells show a low level of green fluorescence, apoptotic cells show an incrementally higher level of green fluorescence, and dead cells show both red and green fluorescence. […]

In the case of “wt ZZ-GFP-hFTN: wild-type human heavy chain ferritin with N-terminal ZZ antibody binding domain and GFP, forms nanocage”, the “binding of the nanocage to cells (GFP fluorescence)” value (“binding of the nanocage to cells” below) (HT29 cells; absence of antibody) is reported as “no discernible background binding”, the “binding of the nanocage to cells” value (HT29 cells; presence of anti-EGFR antibody) is reported as “complete shift in the fluorescence of the population” and the “binding of the nanocage to cells” value (MNK1.1 cells; absence of antibody) is reported as “no discernible background binding”. The “binding of the nanocage to cells” value (MNK1.1 cells; presence of anti-NK1.1 antibody) was “complete shift in the fluorescence of the population”.
With `CC[N+](C)(CC)CCC[n+]1c(-c2ccccc2)c2cc(N)ccc2c2ccc(N)cc21.[I-].[I-]` [PI, propidium iodide] the “drug presence in lysed cells by LC-MS” value (HT-29 cells [1]) was “present in the lysed cells”.
In the case of `COc1cccc2c1C(=O)c1c(O)c3c(c(O)c1C2=O)C[C@@](O)(C(=O)CO)C[C@@H]3O[C@H]1C[C@H](N)[C@H](O)[C@H](C)O1` [Dox, doxorubicin], the “drug presence in lysed cells by LC-MS” value (HT-29 cells [1]) is reported as “present in the lysed cells”.
`CC(=O)O[C@H]1C(=O)[C@@]2(C)[C@H]([C@H](OC(=O)c3ccccc3)[C@]3(O)C[C@H](OC(=O)[C@H](O)[C@@H](NC(=O)c4ccccc4)c4ccccc4)C(C)=C1C3(C)C)[C@]1(OC(C)=O)CO[C@@H]1C[C@@H]2O` [Pac, Paclitaxel] gave a cell death (HT-29 cells [2]) of ~9%.
